Assay results reported in PubChem BioAssay (NCI).
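Briefly, cells in 96-well plates were exposed to five compound concentrations for 48 h, and endpoints were estimated by linear interpolation. TGI: total growth inhibition.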

How the values were obtained:
Assay in all cases: NCI-60 cell line screen, 48 h
SK-MEL-28 melanoma = test system: SK-MEL-28 melanoma
HCC-2998 colon = test system: HCC-2998 colon
NCI-H226 lung = test system: NCI-H226 lung
HCT-116 colon = test system: HCT-116 colon
SR leukemia = test system: SR leukemia
MCF7 breast = test system: MCF7 breast
HL-60(TB) leukemia = test system: HL-60(TB) leukemia
HCT-15 colon = test system: HCT-15 colon
HT29 colon = test system: HT29 colon
A498 renal = test system: A498 renal

Work on `Cc1cnc2sn(-c3ccc(Oc4ccccc4)cc3)c(=O)c2c1` yielded a TGI (SK-MEL-28 melanoma) of 33.3 µM, a TGI (HCC-2998 colon) of 22.8 µM and a TGI (NCI-H226 lung) of 47.6 µM. For the same compound, the TGI (HCT-116 colon) was 71.4 µM, the TGI (SR leukemia) was 44 µM and the TGI (MCF7 breast) was 75.4 µM. It also gave a TGI (HL-60(TB) leukemia) of over 100 µM, a TGI (HCT-15 colon) of 23.9 µM and a TGI (HT29 colon) of 39.6 µM.
In the case of `COC(=O)C1Cc2c(OC)ccc(OC)c2CC(C(=O)OC)C1=O` (centres undefined), the TGI (SK-MEL-28 melanoma) is reported as over 100 µM, the TGI (HCC-2998 colon) is reported as over 100 µM and the TGI (NCI-H226 lung) is reported as over 100 µM. The TGI (HCT-116 colon) was over 100 µM, the TGI (MCF7 breast) was over 100 µM and the TGI (A498 renal) was over 100 µM. For the same compound, the TGI (HCT-15 colon) was over 100 µM and the TGI (HT29 colon) was over 100 µM.
`CCCCC(=O)NS(=NC(=O)c1ccccc1)C(Cl)(Cl)Cl` (centres undefined) showed a TGI (SK-MEL-28 melanoma) of over 100 µM, a TGI (HCC-2998 colon) of over 100 µM and a TGI (NCI-H226 lung) of over 100 µM. The TGI (HCT-116 colon) was over 100 µM, the TGI (SR leukemia) was over 100 µM and the TGI (MCF7 breast) was over 100 µM. For the same compound, the TGI (HL-60(TB) leukemia) was over 100 µM, the TGI (HCT-15 colon) was over 100 µM and the TGI (HT29 colon) was over 100 µM.
`C[n+]1c(-c2ccc(/C=N/NC(=N)N/N=C/c3ccc(-c4cn5cc(Cl)ccc5[n+]4C)cc3)cc2)cn2cc(Cl)ccc21` gave a TGI (SK-MEL-28 melanoma) of over 100 µM, a TGI (HCC-2998 colon) of over 100 µM and a TGI (HCT-116 colon) of over 100 µM. The TGI (SR leukemia) was over 100 µM, the TGI (MCF7 breast) was over 100 µM and the TGI (HL-60(TB) leukemia) was over 100 µM. The TGI (HCT-15 colon) was over 100 µM and the TGI (HT29 colon) was over 100 µM.
For `Cc1nc(C)c(C(=O)NNC(N)=S)cc1C(=O)NNC(N)=S`, the TGI (SK-MEL-28 melanoma) was over 100 µM, the TGI (HCC-2998 colon) was over 100 µM and the TGI (NCI-H226 lung) was over 100 µM. For the same compound, the TGI (HCT-116 colon) was over 100 µM, the TGI (MCF7 breast) was over 100 µM and the TGI (HL-60(TB) leukemia) was over 100 µM. The TGI (HCT-15 colon) was over 100 µM and the TGI (HT29 colon) was over 100 µM.
`CCN(CC)CC1CCCCN1CC(=O)N1c2ccccc2NC(=O)CC1C` (centres undefined) gave a TGI (SK-MEL-28 melanoma) of over 100 µM, a TGI (HCC-2998 colon) of over 100 µM and a TGI (NCI-H226 lung) of over 100 µM. For the same compound, the TGI (HCT-116 colon) was over 100 µM, the TGI (MCF7 breast) was over 100 µM and the TGI (HL-60(TB) leukemia) was over 100 µM. For the same compound, the TGI (A498 renal) was over 100 µM, the TGI (HCT-15 colon) was over 100 µM and the TGI (HT29 colon) was over 100 µM.
With `BrCCCCCOc1ccc(-c2c3ccccc3c(-c3ccc(OCCCCCBr)cc3)c3ccccc23)cc1` the TGI (SK-MEL-28 melanoma) was over 100 µM, the TGI (HCC-2998 colon) was over 100 µM and the TGI (NCI-H226 lung) was over 100 µM. The TGI (HCT-116 colon) was over 100 µM, the TGI (SR leukemia) was over 100 µM and the TGI (MCF7 breast) was over 100 µM. The TGI (HL-60(TB) leukemia) was over 100 µM, the TGI (HCT-15 colon) was over 100 µM and the TGI (HT29 colon) was over 100 µM.
`O=C(c1ccco1)N1CCCN(C(=O)c2ccco2)C1=S` showed a TGI (SK-MEL-28 melanoma) of over 100 µM, a TGI (NCI-H226 lung) of over 100 µM and a TGI (HCT-116 colon) of over 100 µM. The TGI (MCF7 breast) was over 100 µM, the TGI (HL-60(TB) leukemia) was over 100 µM and the TGI (A498 renal) was over 100 µM. The TGI (HCT-15 colon) was over 100 µM and the TGI (HT29 colon) was over 100 µM.
In the case of `N/C(=N\S(=O)(=O)c1ccc(S(=O)(=O)c2ccccc2)s1)Nc1ccc(Cl)cc1`, the TGI (SK-MEL-28 melanoma) is reported as 44 µM, the TGI (NCI-H226 lung) is reported as 88.6 µM and the TGI (HCT-116 colon) is reported as 32.9 µM. For the same compound, the TGI (SR leukemia) was 61.9 µM, the TGI (MCF7 breast) was 35.6 µM and the TGI (HL-60(TB) leukemia) was 53.8 µM. It also gave a TGI (A498 renal) of 34.7 µM, a TGI (HCT-15 colon) of 35.1 µM and a TGI (HT29 colon) of 45.1 µM.
`C[C@]12CCC(=O)C=C1CC[C@@H]1[C@@H]2[C@@H](O)C[C@@]2(C)[C@H]1CC[C@]2(O)C(=O)COC(=O)COCC(=O)O` gave a TGI (SK-MEL-28 melanoma) of over 100 µM, a TGI (HCC-2998 colon) of over 100 µM and a TGI (NCI-H226 lung) of over 100 µM. The TGI (HCT-116 colon) was over 100 µM, the TGI (HL-60(TB) leukemia) was over 100 µM and the TGI (A498 renal) was over 100 µM. The TGI (HCT-15 colon) was over 100 µM and the TGI (HT29 colon) was over 100 µM.
With `CCC(CON(C)c1ccccc1)(SC)SC` the TGI (SK-MEL-28 melanoma) was over 100 µM, the TGI (HCC-2998 colon) was over 100 µM and the TGI (NCI-H226 lung) was over 100 µM. The TGI (HCT-116 colon) was over 100 µM, the TGI (SR leukemia) was over 100 µM and the TGI (MCF7 breast) was over 100 µM. It also gave a TGI (HL-60(TB) leukemia) of over 100 µM, a TGI (HCT-15 colon) of over 100 µM and a TGI (HT29 colon) of over 100 µM.
